Reference: patent publication US4148919A, “7-Amino-6,7-dihydro [5H]benzocycloheptene derivatives” (Roussel Uclaf, priority 1975, dated 1979)

Experiments:
mice [1] = experiment: Potentialization of effects of monoamine oxidase inhibitor (nialamide hyperactivity, actimetry); assay type: in vivo; design: key: ++: expressed in increasing number of + signs for a determined dose in mg/kg; +++: expressed in increasing number of + signs for a determined dose in mg/kg; conditions: 30 minutes after nialamide 100 mg/kg i.p., actimetry for 6 hours
Description: The administration of a monoamine oxidase inhibitor to mice induces a hyperactive movement of the animals which is able to be potentialized by an antidepressant. Using the procedure of Carlsson et al. [Brain Research, Vol. 12 (1969), p. 456], a dose of 100 mg/kg of nialamide was intraperitoneally administered to mice 30 minutes before the intraperitoneal administration of the tested product and the values of actimetric measurements were recorded every 30 minutes for 6 hours. Potentiation of the effects of nialamide for the tested product was expressed in increasing number of + signs for a determined dose in mg/kg.

mice [2] = experiment: Potentiation of effects of L-dopa in iproniazide-pretreated mice; assay type: in vivo; conditions: male mice, intraperitoneal, iproniazide 75 mg/kg 18 hours before, L-dopa 100 mg/kg i.p. one hour after product; 60 min
Description: The administration of L-dopa to mice pretreated 18 hours previously with iproniazide produced certain number of symptoms; muscular hypertonicity, hyperactivity, agitation, crying, aggressiveness, salivation and exophthalmy. The intensity of these effects is potentiated by administration of an antidepressant one hour before the administration of L-dopa. Male mices received intraperitoneally 75 mg/kg of iproniazide 18 hours before the start of the test and the tested product was intraperitoneally administered in aqueous solution in increasing doses. One hour later, L-dopa was intraperitoneally administered at a dose of 100 mg/kg and the different symptoms were observed 15 and 30 minutes later. They were evaluated on a scale of 0 to 3 for each animal and the totals for each dose were determined. The ED50 dose which potentiates by 50% the L-dopa effects was determined to be about 20 mg/kg for the product of Example 1.

mice [3] = experiment: Acute toxicity; assay type: in vivo; conditions: intraperitoneal administration, determined 48 hours later
Description: The DL50 dose which kills 50% of mice after intraperitoneal administration of the tested compound was determined 48 hours later and the DL50 for the compound of Example 1 was about 75 mg/kg.

serotonine (5HT) uptake [4] = experiment: Inhibition of Serotonine uptake in vitro (impure brain synaptosomes); assay type: biochemical; conditions: female rat brain synaptosomes, 37° C. 5 minutes, 14C-5HT 10^-7 M
Description: (§1) The inhibition of serotonine (5HT) uptake was measured in impure synaptosomes prepared from the entire brain of a female rat 19 to 21 days old using the technique of Kannengiesser et al. [Biochemical Pharmacology,Vol. 22, (1973) p. 73].

serotonine (5HT) uptake [5] = experiment: Inhibition of Serotonine uptake in vivo (synaptosomes from treated rats); design: species or system rat; key: the activity was expressed in increasing number of + signs; conditions: 20 mg/kg intraperitoneal, female rats, brain removed after 30 minutes
Description: as §1
The tested products were intraperitoneally administered to groups of female rats 19 to 21 days old at doses of 5 to 20 mg/kg. After 30 minutes, the brain was removed and synaptosomes were prepared and placed in an incubator in the presence of 14 C-5HT as indicated in the previous test.

7-amino-6,7-dihydro [5H] benzocycloheptene-hydrochloride [Example 1]
Potentiation of the effects of nialamide (mice [1]; 5 mg/kg intraperitoneal): ++ | Potentiation of the effects of nialamide (mice [1]; 20 mg/kg intraperitoneal): +++ | ED50 dose which potentiates by 50% the L-dopa effects (mice [2]): about 20 mg/kg | DL50 dose which kills 50% of mice (mice [3]): about 75 mg/kg | IC50 (serotonine (5HT) uptake [4]): ~2400 nM | Relative power to inhibit the uptake of 14C-5HT (serotonine (5HT) uptake [5]): +
